The results in this text go back to US20250115598A1 (Anaxis Pharma Pty Ltd, priority 2021, published 2025).

The target in assay [1] is human RIPK1 (Homo sapiens (Human), UniProt Q13546). Put plainly: KINOMEscan binding assay, human RIPK1. Conditions: Table 21. The procedure, abridged: (§1)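 Kd values come from dose-response fits to the Hill equation (Hill slope −1, Levenberg–Marquardt least squares). Compound competed with bead-bound ligand for tagged kinase, and remaining kinase was measured by qPCR after elution. Dilution series: 11 points, 3-fold, 1% DMSO final, top 30,000 nM in most runs.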
Sequence of human RIPK1 (Q13546 whole entry): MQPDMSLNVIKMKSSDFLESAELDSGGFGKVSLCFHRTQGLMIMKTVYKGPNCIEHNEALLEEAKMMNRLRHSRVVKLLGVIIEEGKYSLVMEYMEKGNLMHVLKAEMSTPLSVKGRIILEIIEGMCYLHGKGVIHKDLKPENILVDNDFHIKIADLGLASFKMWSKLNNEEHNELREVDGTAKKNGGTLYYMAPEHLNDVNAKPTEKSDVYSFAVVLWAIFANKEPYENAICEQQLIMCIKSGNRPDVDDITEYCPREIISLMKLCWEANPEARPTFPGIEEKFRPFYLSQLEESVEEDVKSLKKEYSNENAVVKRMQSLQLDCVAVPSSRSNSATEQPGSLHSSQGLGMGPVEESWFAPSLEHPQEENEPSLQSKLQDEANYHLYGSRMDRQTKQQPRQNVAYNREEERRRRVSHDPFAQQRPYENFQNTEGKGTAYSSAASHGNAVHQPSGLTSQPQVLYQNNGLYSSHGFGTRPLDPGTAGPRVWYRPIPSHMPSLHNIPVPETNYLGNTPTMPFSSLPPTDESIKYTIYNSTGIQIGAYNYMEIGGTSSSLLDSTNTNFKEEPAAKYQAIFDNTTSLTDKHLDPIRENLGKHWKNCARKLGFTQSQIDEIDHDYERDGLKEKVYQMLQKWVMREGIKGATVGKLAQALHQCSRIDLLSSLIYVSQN

The target of assay [2] is human RIPK3 (Homo sapiens (Human), UniProt Q9Y572). Put plainly: KINOMEscan binding assay, human RIPK3. Conditions: Table 21. The method in brief: as §1
Sequence of human RIPK3 (Q9Y572 whole entry): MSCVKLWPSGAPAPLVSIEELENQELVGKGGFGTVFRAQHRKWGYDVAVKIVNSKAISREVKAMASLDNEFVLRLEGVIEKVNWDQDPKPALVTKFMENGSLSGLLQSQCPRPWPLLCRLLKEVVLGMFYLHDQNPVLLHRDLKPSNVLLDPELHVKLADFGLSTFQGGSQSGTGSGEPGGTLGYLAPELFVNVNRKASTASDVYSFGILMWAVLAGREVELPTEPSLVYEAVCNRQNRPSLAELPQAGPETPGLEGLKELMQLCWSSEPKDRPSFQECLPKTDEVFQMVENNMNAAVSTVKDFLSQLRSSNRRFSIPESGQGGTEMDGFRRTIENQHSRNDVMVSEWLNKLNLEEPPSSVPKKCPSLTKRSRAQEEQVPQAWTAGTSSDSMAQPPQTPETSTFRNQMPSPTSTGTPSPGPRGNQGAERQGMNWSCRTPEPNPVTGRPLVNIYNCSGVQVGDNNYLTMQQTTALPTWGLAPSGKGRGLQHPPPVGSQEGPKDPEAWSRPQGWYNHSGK

By Kd is commonly meant a measure of binding affinity in units of concentration. A lower Kd goes with tighter binding. As to `C[C@H](Oc1cc(-c2nn(C)c3c(-c4ccccc4Cl)cnc(N)c23)ccc1NS(=O)(=O)C(F)F)c1ccc(F)cc1` [Compound 85, (S)-N-(4-(4-amino-7-(2-chlorophenyl)-1-methyl-1H-pyrazolo[4,3-c]pyridin-3-yl)-2-(1-(4-fluorophenyl)ethoxy)phenyl)-1,1-difluoromethanesulfonamide], the Kd in assay [1] and in assay [2] was more than 10 µM throughout.

On to `CC1CNCC(n2cc(-c3cnc(N)c4c(-c5ccc(NS(=O)(=O)C(F)F)c(O[C@@H](C)c6ccc(F)cc6)c5)nn(C)c34)cn2)C1` (stereo partly drawn) [Compound 95, N-(4-(4-amino-1-methyl-7-(1-(5-methylpiperidin-3-yl)-1H-pyrazol-4-yl)-1H-pyrazolo[4,3-c]pyridin-3-yl)-2-((S)-1-(4-fluorophenyl)ethoxy)phenyl)-1,1-difluoromethane-sulfonamide], for which the Kd in assay [1] and in assay [2] was more than 10 µM in each case.

Regarding `C[C@H](Oc1cc(-c2nn(C)c3c(C#CC4CCN(CC(F)(F)F)CC4)cnc(N)c23)ccc1NS(=O)(=O)C(F)F)c1ccc(F)cc1` [Compound 128, (S)-N-(4-(4-amino-1-methyl-7-((1-(2,2,2-trifluoroethyl)piperidin-4-yl)ethynyl)-1H-pyrazolo[4,3-c]pyridin-3-yl)-2-(1-(4-fluorophenyl)ethoxy)phenyl)-1,1-difluoromethane-sulfonamide], the Kd in assay [1] and in assay [2] was more than 10 µM in each case.

Consider `C[C@H](Oc1cc(-c2nn(C)c3c(-c4cnn(C(F)(F)F)c4)cnc(N)c23)ccc1NS(=O)(=O)C(F)F)c1ccc(F)cc1` [Compound 134, (S)-N-(4-(4-amino-1-methyl-7-(1-(trifluoromethyl)-1H-pyrazol-4-yl)-1H-pyrazolo[4,3-c]pyridin-3-yl)-2-(1-(4-fluorophenyl)ethoxy)phenyl)-1,1-difluoromethanesulfonamide], for which the Kd in assay [1] and in assay [2] was more than 10 µM in each case.

`C[C@H](Oc1cc(-c2nn(C)c3c(-c4ccnc(N(C)C)c4)cnc(N)c23)ccc1NS(=O)(=O)C(F)F)c1ccc(F)cc1` [Compound 49, (S)-N-(4-(4-amino-7-(2-(dimethylamino)pyridin-4-yl)-1-methyl-1H-pyrazolo[4,3-c]pyridin-3-yl)-2-(1-(4-fluorophenyl)ethoxy)phenyl)-1,1-difluoromethanesulfonamide]: the Kd in assay [1] and in assay [2] was more than 10 µM in each case.

As to `C[C@H](Oc1cc(-c2nn(C)c3c(-c4cnn5c4CNCC5)cnc(N)c23)ccc1NS(=O)(=O)C(F)F)c1ccc(F)cc1` [Compound 90, (S)—N-(4-(4-amino-1-methyl-7-(4,5,6,7-tetrahydropyrazolo[1,5-a]pyrazin-3-yl)-1H-pyrazolo[4,3-c]pyridin-3-yl)-2-(1-(4-fluorophenyl)ethoxy)phenyl)-1,1-difluoromethanesulfonamide], the Kd in assay [1] and in assay [2] was more than 10 µM each time.

With `C[C@H](Oc1cc(-c2nn(C)c3c(-c4cnn(C5CCOCC5)c4)cnc(N)c23)ccc1NS(=O)(=O)C(F)F)c1ccccc1F` [Compound 118, (S)-N-(4-(4-amino-1-methyl-7-(1-(tetrahydro-2H-pyran-4-yl)-1H-pyrazol-4-yl)-1H-pyrazolo[4,3-c]pyridin-3-yl)-2-(1-(2-fluoro-phenyl)ethoxy)phenyl)-1,1-difluoromethane-sulfonamide], the Kd in assay [1] and in assay [2] was more than 10 µM in each case.

As for `C[C@H](Oc1cc(-c2nn(C)c3c(-c4cnn(C5CCC(F)(F)CC5)c4)cnc(N)c23)ccc1NS(=O)(=O)C(F)F)c1ccc(F)cc1` [Compound 146, (S)-N-(4-(4-amino-7-(1-(4,4-difluorocyclohexyl)-1H-pyrazol-4-yl)-1-methyl-1H-pyrazolo[4,3-c]pyridin-3-yl)-2-(1-(4-fluorophenyl)ethoxy)phenyl)-1,1-difluoromethanesulfonamide], the Kd in assay [1] and in assay [2] was more than 10 µM each time.

With `C[C@H](Oc1cc(-c2nn(C)c3c(-c4ccccc4)cnc(N)c23)ccc1NS(=O)(=O)C(F)F)c1ccc(F)cc1` [Compound 86, (S)-N-(4-(4-amino-1-methyl-7-phenyl-1H-pyrazolo[4,3-c]pyridin-3-yl)-2-(1-(4-fluorophenyl)ethoxy)phenyl)-1,1-difluoromethanesulfonamide], the Kd in assay [1] and in assay [2] was more than 10 µM each time.

As for `C[C@H](Oc1cc(-c2nn(C)c3c(N4CCOCC4)cnc(N)c23)ccc1NS(=O)(=O)C(F)F)c1ccc(F)cc1` [Compound 141, N-{4-[4-amino-1-methyl-7-(morpholin-4-yl)-1H-pyrazolo[4,3-c]pyridin-3-yl]-2-[(1S)-1-(4-fluorophenyl)ethoxy]phenyl}-1,1-difluoromethanesulfonamide], the Kd in assay [1] and in assay [2] was more than 10 µM each time.

For `Nc1ncc(-c2cnn(C3CCOCC3)c2)c2occ(-c3ccc(NS(=O)(=O)CC(F)(F)F)c(OCc4ccc(F)cc4)c3)c12` [Compound 11, N-(4-(4-amino-7-(1-(tetrahydro-2H-pyran-4-yl)-1H-pyrazol-4-yl)furo[3,2-c]pyridin-3-yl)-2-((4-fluorobenzyl)oxy)phenyl)-2,2,2-trifluoroethane-1-sulfonamide], the Kd in assay [1] and in assay [2] was more than 10 µM throughout.

Take `CCS(=O)(=O)Nc1ccc(-c2nn(C)c3c(-c4cnn(C5CCOCC5)c4)cnc(N)c23)cc1O[C@@H](C)c1ccc(F)cc1` [Compound 45, (S)-N-(4-(4-amino-1-methyl-7-(1-(tetrahydro-2H-pyran-4-yl)-1H-pyrazol-4-yl)-1H-pyrazolo[4,3-c]pyridin-3-yl)-2-(1-(4-fluorophenyl)ethoxy)phe-nyl)ethanesulfonamide]: the figures for the Kd in assay [1] and in assay [2] were more than 10 µM and 0.1 to 10 µM, respectively.

For the compound `COc1cc(-c2cnc(N)c3c(-c4ccc(NS(=O)(=O)C(F)F)c(O[C@@H](C)c5ccc(F)cc5)c4)nn(C)c23)ccn1` [Compound 27, (S)-N-(4-(4-amino-7-(2-methoxypyridin-4-yl)-1-methyl-1H-pyrazolo[4,3-c]pyridin-3-yl)-2-(1-(4-fluorophenyl)ethoxy)phenyl)-1,1-difluoromethanesulfonamide], the Kd in assay [1] and in assay [2] was more than 10 µM in each case.

`C[C@H](Oc1cc(-c2nn(C)c3c(-c4cnn(C5CCN(CC(F)(F)F)CC5)c4)cnc(N)c23)ccc1NS(=O)(=O)C(F)F)c1ccc(F)cc1` [Compound 61, (S)-N-(4-(4-amino-1-methyl-7-(1-(1-(2,2,2-trifluoroethyl)piperidin-4-yl)-1H-pyrazol-4-yl)-1H-pyrazolo[4,3-c]pyridin-3-yl)-2-(1-(4-fluorophenyl)ethoxy)phenyl)-1,1-difluoromethanesulfonamide]: the Kd in assay [1] and in assay [2] was more than 10 µM each time.

On to `CC(C)n1nc(-c2ccc(NS(=O)(=O)C(F)F)c(O[C@@H](C)c3ccc(F)cc3)c2)c2c(N)ncc(-c3cnn(C4CCOCC4)c3)c21` [Compound 51, (S)-N-(4-(4-amino-1-isopropyl-7-(1-(tetrahydro-2H-pyran-4-yl)-1H-pyrazol-4-yl)-1H-pyrazolo[4,3-c]pyridin-3-yl)-2-(1-(4-fluorophenyl)ethoxy)phenyl)-1,1-difluoromethane-sulfonamide], for which the Kd in assay [1] and in assay [2] was more than 10 µM in each case.
